Laboratory results as given in US11992494B2, “Cyclopentathiophene carboxamide derivatives as platelet activating factor receptor antagonists” (Boehringer Ingelheim International GmbH, priority 2021, dated 2024).
Like-named read-outs stand apart in the source and are kept apart here.

Key:
PAFR [1] = biological target: T1, PAFR (Homo sapiens, UniProt P25105); settings: cited from earlier work; for Ki: literature values (Weber et al.; EP0368175A1), read-out: PAFR affinity (Ki)
Target sequence in this assay (P25105 whole entry, species assumed): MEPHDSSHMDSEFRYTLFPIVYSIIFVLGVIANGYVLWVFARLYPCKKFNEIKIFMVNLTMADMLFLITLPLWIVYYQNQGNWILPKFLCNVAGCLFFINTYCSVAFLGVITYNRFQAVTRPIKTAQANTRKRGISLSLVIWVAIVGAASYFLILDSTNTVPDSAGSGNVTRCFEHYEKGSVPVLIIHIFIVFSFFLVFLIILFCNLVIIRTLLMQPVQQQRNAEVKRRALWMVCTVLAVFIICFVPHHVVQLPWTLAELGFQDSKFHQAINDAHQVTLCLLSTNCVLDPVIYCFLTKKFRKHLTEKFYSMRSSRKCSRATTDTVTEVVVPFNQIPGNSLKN

PAFR [2] = biological target: T1, PAFR; settings: PAFR binding, Miyazawa et al.; cited from earlier work
Target sequence in this assay (P25105 whole entry, species assumed): as above

PAFR [3] = biological target: T1, PAFR; assay: cellular HTRF IP1 assay: inhibition of PAFR activation by PAF C-16 ligand (endpoint assay); format: cell-based; design: expressed in transfected cells; host or cells: HEK293
Summary of the method: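 HEK293 cells overexpressing human PAFR were preincubated with compound (1% DMSO) 90 min at 37°C, then challenged with 11 nM PAF C-16 for 60 min in HBSS/20 mM HEPES pH 7.4/50 mM LiCl/0.1% BSA. IP1 accumulation read by HTRF (665/620 nm emission).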
Target sequence in this assay (P25105 whole entry): as the sequence (P25105 whole entry, species assumed) above

[4] = HEK293 cells overexpressing human PAFR, PAF ligand 11 nM, Table 2
[5] = dedicated head-to-head comparison assay run: cyclopropylene vs di-methyl / cyclobutylene analogues

Cc1nnc2n1-c1sc3c(c1C(c1ccccc1Cl)=NC2)CC(C(=O)N1CCOCC1)C3 (single isomer, unassigned; (+)) [(+)-bepafant]
Ki (PAFR [1]): 660 nM

C#CCCOC(=O)N1CCc2c(sc3c2C(c2ccccc2Cl)=NC(C)c2nnc(C)n2-3)C1 (racemic) [compound 22 of Miyazawa et al. racemate]
IC50 (PAFR [2]): 1.5 nM

C#CCCOC(=O)N1CCc2c(sc3c2C(c2ccccc2Cl)=NCc2nnc(C)n2-3)C1 [compound 18 of Miyazawa et al.]
IC50 (PAFR [2]): 3.8 nM

Cc1nnc2n1-c1sc3c(c1C(c1ccccc1Cl)=NC2)CC(C(=O)N1CCOCC1)C3 (racemic) [WEB 2170 (bepafant) racemate]
Ki (PAFR [1]): 15 nM

C#CCCOC(=O)N1CCc2c(sc3c2C(c2ccccc2Cl)=NC(C)c2nnc(C)n2-3)C1 (single isomer, unassigned) [compound 22 of Miyazawa et al. (−) isomer]
IC50 (PAFR [2]): 82 nM

Cc1nnc2n1-c1sc3c(c1C(c1ccccc1Cl)=NC2C)CC(C(=O)N1CCOCC1)C3 (single isomer, unassigned; (-)) [(−) 9dA]
Ki (PAFR [1]): 70 nM

C#CCCOC(=O)N1CCc2c(sc3c2C(c2ccccc2Cl)=NC(CC)c2nnc(C)n2-3)C1 (racemic) [compound 24 of Miyazawa et al. racemate]
IC50 (PAFR [2]): 22 nM

Cc1nnc2n1-c1sc3c(c1C(c1ccccc1Cl)=NC2C)CC(C(=O)N1CCOCC1)C3 (single isomer, unassigned; (+)) [(+) 9dA]
Ki (PAFR [1]): 400 nM

C#CCCOC(=O)N1CCc2c(sc3c2C(c2ccccc2Cl)=NC(C)c2nnc(C)n2-3)C1 (single isomer, unassigned) [compound 35 of Miyazawa et al. (+) isomer]
IC50 (PAFR [2]): 2.8 nM

Cc1nnc2n1-c1sc3c(c1C(c1ccccc1Cl)=NC2C)CCN(C(=O)OC(C)(C)C#N)C3 (single isomer, unassigned) [compound 34 of Miyazawa et al. (+) isomer]
IC50 (PAFR [2]): 3.1 nM

C#CCCOC(=O)N1CCc2c(sc3c2C(c2ccccc2Cl)=NC(C)c2nnc(C)n2-3)C1 (single isomer, unassigned) [compound 22 of Miyazawa et al. (+) isomer]
IC50 (PAFR [2]): 0.34 nM

C#CCCOC(=O)N1CCc2c(sc3c2C(c2ccccc2Cl)=NC(CC)(CC)c2nnc(C)n2-3)C1 [compound 25 of Miyazawa et al.]
IC50 (PAFR [2]): 290 nM

Cc1nnc2n1-c1sc3c(c1C(c1ccccc1Cl)=NC2C)CCN(C(=O)OC(C)(C)C#N)C3 (single isomer, unassigned) [compound 34 of Miyazawa et al. (−) isomer]
IC50 (PAFR [2]): 500 nM

Cc1nnc2n1-c1sc3c(c1C(c1ccccc1Cl)=NC2)CC(C(=O)N1CCOCC1)C3 (single isomer, unassigned; (-)) [(−)-bepafant]
Ki (PAFR [1]): 14 nM

Cc1nnc2n1-c1sc(CCC(=O)N3CCOCC3)cc1C(c1ccccc1Cl)=NC2C (stereo not drawn) [example 1 of EP0368175A1 (−)-enantiomer]
binding to the PAFR of (−)-enantiomer relative to (+)-enantiomer (PAFR [1]; see EP0368175A1): (−)-enantiomer 35 times stronger binding

C#CCCOC(=O)N1CCc2c(sc3c2C(c2ccccc2Cl)=NC(C)c2nnc(C)n2-3)C1 (single isomer, unassigned) [compound 35 of Miyazawa et al. (−) isomer]
IC50 (PAFR [2]): 420 nM

C#CCCOC(=O)N1CCc2c(sc3c2C(c2ccccc2Cl)=NC(C)(C)c2nnc(C)n2-3)C1 [compound 23 of Miyazawa et al.]
IC50 (PAFR [2]): 160 nM

Cc1nnc2n1-c1sc3c(c1C(c1ccccc1Cl)=NC21CC1)C[C@H](C(=O)N(C)[C@H]1CCCC[C@H]1O)C3 [Example 102]
IC50 (PAFR [3]; [4]): 6.9 nM

Cc1nnc2n1-c1sc3c(c1C(c1cc(Br)ccc1Cl)=NC21CC1)C[C@H](C(=O)N1CCOCC1)C3 [Example 4, (13′S)-9′-(5-bromo-2-chlorophenyl)-3′-methyl-13′-(morpholine-4-carbonyl)-16′-thia-2′,4′,5′,8′-tetraazaspiro[cyclopropane-1,7′-tetracyclo[8.6.0.0^2,6.0^11,15]hexadecane]-1′(10′)3′,5′,8′,11′(15′)-pentaene]
IC50 (PAFR [3]; [4]): 26 nM

Cc1nnc2n1-c1sc3c(c1C(c1ccccc1Cl)=NC2)C[C@H](C(=O)N1CCOCC1)C3 [S-bepafant, reference compound]
IC50 (PAFR [3]; S-bepafant and its methylated derivatives in the above-mentioned assay): 73.5 nM

Cc1nnc2n1-c1sc3c(c1C(c1ccccc1Cl)=NC21CC1)C[C@H](C(=O)N[C@@H](C)CF)C3 [Example 125]
IC50 (PAFR [3]; [4]): 5.8 nM

Cc1nnc2n1-c1sc3c(c1C(c1ccccc1Cl)=NC2(C)C)C[C@H](C(=O)NC1CCOCC1)C3 [reference compound]
IC50 (PAFR [3]; [5]): 65 nM

Cc1nnc2n1-c1sc3c(c1C(c1ccccc1Cl)=NC21CC1)C[C@H](C(=O)N[C@H]1CC[C@@H](F)C1)C3 [Example 70]
IC50 (PAFR [3]; [4]): 2.6 nM

Cc1nnc2n1-c1sc3c(c1C(c1ccccc1Cl)=NC21CC1)C[C@H](C(=O)NC1(C)CC1)C3 [Example 18]
IC50 (PAFR [3]; [4]): 3.4 nM

Cc1nnc2n1-c1sc3c(c1C(c1ccccc1Cl)=NC21CC1)C[C@H](C(=O)NC1(C)CCOCC1)C3 [Example 45]
IC50 (PAFR [3]; [4]): 12 nM

Cc1nnc2n1-c1sc3c(c1C(c1ccccc1Cl)=NC2C)CC(C(=O)N1CCOCC1)C3 (single isomer, unassigned; (-)) [(−) 9dB]
Ki (PAFR [1]): 8 nM

Cc1nnc2n1-c1sc3c(c1C(c1ccccc1Cl)=NC21CC1)C[C@H](C(=O)NC1CCC1)C3 [Example 7, (13′S)-9′-(2-chlorophenyl)-N-cyclobutyl-3′-methyl-16′-thia-2′,4′,5′,8′-tetraazaspiro-[cyclopropane-1,7′-tetracyclo[8.6.0.0^2,6.0^11,15]-hexadecane]-1′(10′),3′,5′,8′,11′(15′)-pentaene-13′-carboxamide]
IC50 (PAFR [3]; [4]): 1.7 nM
IC50 (PAFR [3]; [5]): 2 nM

Cc1nnc2n1-c1sc3c(c1C(c1ccccc1Cl)=NC21CC1)C[C@H](C(=O)N[C@@H]1CCc2ccccc21)C3 [Example 32]
IC50 (PAFR [3]; [4]): 1 nM

Cc1nnc2n1-c1sc3c(c1C(c1ccccc1Cl)=NC21CC1)C[C@H](C(=O)NC1CCCCC1)C3 [Example 59]
IC50 (PAFR [3]; [4]): 1.6 nM

Cc1nnc2n1-c1sc3c(c1C(c1ccccc1Cl)=NC2(C)C)C[C@H](C(=O)NC1(c2ccccn2)CC1)C3 [reference compound]
IC50 (PAFR [3]; [5]): 26 nM

Cc1nnc2n1-c1sc3c(c1C(c1ccccc1Cl)=NC21CC1)C[C@H](C(=O)N(C)C1CCC1)C3 [Example 21]
IC50 (PAFR [3]; [4]): 1.1 nM

Cc1nnc2n1-c1sc3c(c1C(c1ccccc1Cl)=NC21CC1)C[C@H](C(=O)NC1[C@H]2CCC[C@@H]12)C3 (stereo partly shown) [Example 19]
IC50 (PAFR [3]; [4]): 1.6 nM

Cc1nnc2n1-c1sc3c(c1C(c1ccccc1Cl)=NC2C)CC(C(=O)N1CCOCC1)C3 (single isomer, unassigned; (+)) [(+) 9dB]
Ki (PAFR [1]): 3000 nM

Cc1nnc2n1-c1sc3c(c1C(c1ccccc1Cl)=NC2(C)C)C[C@H](C(=O)N[C@@H]1CCC(F)(F)C1)C3 [reference compound]
IC50 (PAFR [3]; [5]): 7.7 nM

Cc1nnc2n1-c1sc3c(c1C(c1ccccc1Cl)=NC21CC1)C[C@H](C(=O)N(C)C1CCS(=O)(=O)C1)C3 (stereo partly shown) [Example 89]
IC50 (PAFR [3]; [4]): 15 nM

Cc1nnc2n1-c1sc3c(c1C(c1ccccc1Cl)=NC2(C)C)C[C@H](C(=O)NC1CCC1)C3 [reference compound]
IC50 (PAFR [3]; [5]): 7.6 nM

Cc1nnc2n1-c1sc3c(c1C(c1ccccc1Cl)=NC21CC1)C[C@H](C(=O)NCCOC(F)(F)F)C3 [Example 67]
IC50 (PAFR [3]; [4]): 1.7 nM

Cc1nnc2n1-c1sc3c(c1C(c1ccccc1Cl)=NC21CC1)C[C@H](C(=O)N[C@H]1CCc2ccccc21)C3 [Example 82]
IC50 (PAFR [3]; [4]): 1.5 nM

Cc1nnc2n1-c1sc3c(c1C(c1ccccc1Cl)=NC21CC1)C[C@H](C(=O)NC1CCc2ccc(F)cc21)C3 (stereo partly shown) [Example 22]
IC50 (PAFR [3]; [4]): 0.6 nM
